Drawing on patent US12234211B2, “Cycloolefin substituted heteroaromatic compounds and their use” (HUTCHISON MEDIPHARMA LIMITED, priority 2017, dated 2025), this text covers IC50 for 41 compounds.

One test addresses T1, IDH1-R132H (Homo sapiens, UniProt O75874, R132H).
T1 construct: expressed in transfected cells; host or cells: U87MG cells (U87MGR132H)
The test can be described thus: Fluorescent determination of IDH1-R132H cell activity (2-HG in U87MGR132H cells). It counts as cell-based. The following applies: 2-HG inhibition in U87MGR132H cells transfected with IDH1-R132H mutant plasmid.

A further test has as its target T2, IDH2-R140Q (Homo sapiens, UniProt P48735, R140Q).
T2 construct: expressed in transfected cells
T2 sequence (P48735 40-452 R140Q): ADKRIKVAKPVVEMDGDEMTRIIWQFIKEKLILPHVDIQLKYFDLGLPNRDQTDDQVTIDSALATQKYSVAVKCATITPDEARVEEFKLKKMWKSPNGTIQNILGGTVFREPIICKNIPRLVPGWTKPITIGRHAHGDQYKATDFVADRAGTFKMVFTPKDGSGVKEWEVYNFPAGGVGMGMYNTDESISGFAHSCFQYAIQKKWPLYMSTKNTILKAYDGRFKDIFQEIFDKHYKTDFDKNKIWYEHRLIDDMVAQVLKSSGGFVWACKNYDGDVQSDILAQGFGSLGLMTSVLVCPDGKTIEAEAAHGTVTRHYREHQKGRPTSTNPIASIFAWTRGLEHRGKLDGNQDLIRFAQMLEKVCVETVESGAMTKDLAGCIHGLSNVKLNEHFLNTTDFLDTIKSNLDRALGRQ
The test can be described thus: Fluorescent determination of IDH2-R140Q cell activity (2-HG in U87MGR140Q cells). The following applies: 72 hours incubation, read-out: IC50 (2-HG inhibition). It counts as cell-based. How it is done: Enzyme reaction solution: 1 mM nicotinamide adenine dinucleotide (NAD), 0.6 ng/μL D-2-hydroxyglutarate dehydrogenase (D2HGDH), 0.8 U/mL lipoamidase dehydrogenase (Diaphorase) and 60 μM Resazurin in 40 mM Tris.HCl pH 8.8 assay buffer.
Standard curve stock solution: The standard of 2-HG sodium salt was serially diluted in serum-free MEM medium to make a standard curve stock solution.
100 μL of U87MGR140Q cells were seeded at a density of 6×10^4/mL per well in a 96-well plate a.
From each well of 96-well plate a, 50 μL of the culture supernatant was transferred to the corresponding well of 96-well plate b; at the same time, 50 μL of standard curve stocking solution was added to other wells of 96-well plate b. Then 10 μl of 360 mM hydrochloric acid was added to all the wells. After shaking and mixing, the plate was placed on ice for 10 minutes, and then 10 μl of 420 mM Tris-base was added. After shaking and mixing, the plate was placed on ice for additional 5 minutes. Then the plate was centrifuged at 2500 rpm for 10 minutes.
After centrifuging, from each well of 96-well plate b, 20 μL of the supernatant was transferred to 96-well plate c. An additional 80 μL of the enzyme reaction solution was added to each well and incubated at 25° C. for 90 minutes.
A standard curve of the fluorescence value vs. the corresponding 2-HG concentration was made, and the 2-HG concentration corresponding to each concentration point of the compound was calculated, then the inhibition ratio was calculated, and the data was analyzed using XLfit5 (ID Business Solutions Limited) software to obtain the IC50 value.
The inhibition ratio was calculated as follows: Inhibition Ratio (IH %)=(1-2-HG concentration of test compound treated cells/2-HG concentration of control cells)×100%.

T1 sequence (O75874 whole entry R132H): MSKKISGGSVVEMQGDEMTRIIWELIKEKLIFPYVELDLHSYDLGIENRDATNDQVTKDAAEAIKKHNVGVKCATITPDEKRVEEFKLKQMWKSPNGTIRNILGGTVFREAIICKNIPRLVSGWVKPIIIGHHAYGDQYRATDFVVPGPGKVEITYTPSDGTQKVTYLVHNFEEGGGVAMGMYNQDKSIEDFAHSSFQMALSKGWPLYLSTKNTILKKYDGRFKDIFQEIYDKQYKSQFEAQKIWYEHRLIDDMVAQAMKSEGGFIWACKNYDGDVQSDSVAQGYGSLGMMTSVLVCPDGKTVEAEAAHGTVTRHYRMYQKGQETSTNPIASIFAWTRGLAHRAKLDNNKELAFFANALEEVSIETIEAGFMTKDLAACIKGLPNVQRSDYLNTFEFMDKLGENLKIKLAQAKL

Usually IC50 stands for the concentration at which inhibition is half-maximal. Take `C[C@@H](Nc1nc(N[C@H](C)C(F)(F)F)nc(C2=C(F)C(O)CCCC2)n1)C(F)(F)F` (mixture of isomers) [Compound 21]: the half-inhibitory concentration (IC50) on IDH1-R132H was found to be 234 nM; at IDH2-R140Q, 99 nM.

For `[2H]C1(O)CCCCC(c2nc(NC3CC(F)(F)C3)nc(N[C@H](C)C(F)(F)F)n2)=C1F` (mixture of isomers) [Compound 24], the IC50 against IDH1-R132H was determined as 769 nM; at IDH2-R140Q it was 197 nM.

Regarding `C[C@@H](Nc1nc(N[C@H](C)C(F)(F)F)nc(C2=C(F)C(O)C(Cl)CC2)n1)C(F)(F)F` (mixture of isomers) [Compound 99, 3-(4,6-Bis(((R)-1,1,1-trifluoropropan-2-yl)amino)-1,3,5-triazin-2-yl)-6-chloro-2-fluoro-cyclohex-2-en-1-ol], the IC50 on IDH1-R132H was found to be 938 nM; on IDH2-R140Q, 553 nM.

With `C[C@@H](Nc1nc(NC(C)(C)C)nc(C2=CC(O)CCC2)n1)C(F)(F)F` (mixture of isomers) [Compound 155], the half-maximal inhibitory concentration (IC50) against IDH1-R132H is 2240 nM; at IDH2-R140Q, 319 nM.

For `C[C@H](Nc1nc(N[C@H](C)C(F)(F)F)nc(C2=C(F)C(O)CCC2)n1)c1ccccc1` (mixture of isomers) [Compound 157], the IC50 on IDH1-R132H is 4350 nM; at IDH2-R140Q, 141 nM.

Regarding `C[C@@H](Nc1nc(N[C@H](C)C(F)(F)F)nc(C2=C(F)C(O)CCC2)n1)C1CC1` (mixture of isomers) [Compound 158], the IC50 on IDH1-R132H was 1520 nM; on IDH2-R140Q, 278 nM.

Take `C[C@@H](Nc1nc(NC2CC3(CCC3)C2)nc(C2=C(F)C(O)CCC2)n1)C(F)(F)F` (mixture of isomers) [Compound 159]: the IC50 was 2720 nM against IDH1-R132H and 205 nM at IDH2-R140Q.

`CC(C)[C@@H](C)Nc1nc(N[C@H](C)C(F)(F)F)nc(C2=C(F)C(O)CCC2)n1` (mixture of isomers) [Compound 163]: the IC50 against IDH1-R132H turned out to be 809 nM; on IDH2-R140Q, 162 nM.

On to `CC(C)[C@H](C)Nc1nc(N[C@H](C)C(F)(F)F)nc(C2=C(F)C(O)CCC2)n1` (mixture of isomers) [Compound 167], for which the IC50 was determined as 3170 nM against IDH1-R132H and 327 nM on IDH2-R140Q.

On to `C[C@H](CF)Nc1nc(N[C@H](C)C(F)(F)F)nc(C2=C(F)C(O)CCC2)n1` (mixture of isomers) [Compound 169], for which the half-inhibitory concentration (IC50) on IDH1-R132H amounted to 9460 nM; on IDH2-R140Q, 738 nM.

In the case of `C[C@@H](CF)Nc1nc(N[C@H](C)C(F)(F)F)nc(C2=C(F)C(O)CCC2)n1` (mixture of isomers) [Compound 170], the IC50 at IDH1-R132H was 6930 nM; on IDH2-R140Q, 1380 nM.

Regarding `C[C@@H](Nc1nc(N[C@H](C)C(F)(F)F)c(F)c(C2=CC(O)CCC2)n1)C(F)(F)F` (mixture of isomers) [Compound 207, 3-(5-fluoro-2,6-bis(((R)-1,1,1-trifluoropropan-2-yl)amino)pyrimidin-4-yl)cyclohex-2-en-1-ol], the figures for the IC50 on IDH1-R132H and at IDH2-R140Q were 1510 nM and 564 nM, respectively.

Consider `C[C@@H](Nc1nc(NCC2CC2)nc(C2=C(F)C(O)C(F)(F)CC2)n1)C(F)(F)F` (mixture of isomers) [Compound 209], for which the IC50 against IDH1-R132H is 1760 nM; at IDH2-R140Q it was 78 nM.

On to `CCCNc1nc(N[C@H](C)C(F)(F)F)nc(C2=C(F)C(O)C(F)(F)CC2)n1` (mixture of isomers) [Compound 210], for which the results for the 50% inhibitory concentration (IC50) on IDH1-R132H and at IDH2-R140Q were 4340 nM and 93 nM, respectively.

Regarding `C[C@@H](Nc1nc(NC2CC2)nc(C2=C(F)C(O)C(F)(F)CC2)n1)C(F)(F)F` (mixture of isomers) [Compound 238], the half-maximal inhibitory concentration (IC50) amounted to 7360 nM at IDH1-R132H and 139 nM on IDH2-R140Q.

As for `C[C@@H](Nc1nc(NCC(F)(F)F)nc(C2=C(F)C(O)C(F)(F)CC2)n1)C(F)(F)F` (mixture of isomers) [Compound 245], at IDH1-R132H, 1500 nM corresponded to half-maximal inhibition (IC50).

With `C[C@H](Nc1nc(NC2CC2)nc(C2=C(F)C(O)C(F)(F)CC2)n1)C(F)(F)F` (mixture of isomers) [Compound 260], the values for the IC50 against IDH1-R132H and at IDH2-R140Q were over 10000 nM and 94 nM, respectively.

On to `C[C@H](Nc1nc(NCC(F)(F)F)nc(C2=C(F)C(O)C(F)(F)CC2)n1)C(F)(F)F` (mixture of isomers) [Compound 270], for which the results for the IC50 against IDH1-R132H and at IDH2-R140Q were 2850 nM and 109 nM, respectively.

For the compound `[2H]C1(O)C(F)=C(c2nc(NC3CC3)nc(N[C@@H](C)C(F)(F)F)n2)CCC1(F)F` (mixture of isomers) [Compound 278], the results for the IC50 against IDH1-R132H and at IDH2-R140Q were over 10000 nM and 148 nM, respectively.

As for `CC(C)Nc1nc(Nc2cnn(C)c2)nc(C2=C(F)C(O)CCC2)n1` (centres unmarked) [Compound 57], the IC50 on IDH2-R140Q worked out at 2180 nM.

In the case of `[2H]C([2H])([2H])Nc1nc(Nc2ccnc(C(F)(F)F)c2)nc(C2=C(F)C(O)CCC2)n1` (centres unmarked) [Compound 58], the IC50 on IDH2-R140Q was determined as 169 nM.

Consider `CC(C)Nc1nc(Nc2ccn3nccc3c2)nc(C2=C(F)C(O)CCC2)n1` (centres unmarked) [Compound 59], for which, on IDH2-R140Q, the IC50 is 221 nM.

Regarding `C[C@H](Nc1nc(N[C@@H](C)C(F)(F)F)nc(C2=C(F)C(O)CCC2)n1)C(F)(F)F` (some centres unmarked) [Compound 69], the IC50 at IDH2-R140Q turned out to be 173 nM.

With `CC(C)(O)CNc1nc(Nc2ccnc(C(F)(F)F)c2)nc(C2=C(F)C(O)CCC2)n1` (centres unmarked) [Compound 70], the IC50 on IDH2-R140Q amounted to 112 nM.

`OC1CCCC(c2nc(Nc3ccc(F)cc3)nc(Nc3ccnc(C(F)(F)F)c3)n2)=C1F` (centres unmarked) [Compound 72]: the IC50 at IDH2-R140Q came to 42 nM.

With `[2H]C1([2H])CCC(c2nc(Nc3ccnc(C(F)(F)F)c3)nc(NC([2H])(C([2H])([2H])[2H])C([2H])([2H])[2H])n2)=C(F)C1O` (centres unmarked) [Compound 86], the IC50 at IDH2-R140Q came out at 21 nM.

On to `CC(C)Nc1nc(N[C@H](C)C(F)(F)F)nc(C2=CC(=O)CCC2)n1` [Compound 122, (R)-3-(4-(isopropylamino)-6-((1,1,1-trifluoropropan-2-yl)amino)-1,3,5-triazin-2-yl)cyclohex-2-en-1-one], for which, at IDH2-R140Q, the half-inhibitory concentration (IC50) was 1340 nM.

In the case of `CC(C)Nc1nc(N[C@H](C)C(F)(F)F)nc(C2=CC(F)(F)CCC2)n1` [Compound 138, (R)-6-(3,3-difluorocyclohex-1-en-1-yl)-N^2-isopropyl-N^4-(1,1,1-trifluoropropan-2-yl)-1,3,5-triazine-2,4-diamine], on IDH2-R140Q, the IC50 was found to be 504 nM.

Take `C[C@@H](Nc1nc(N[C@H]2CCOC2)nc(C2=CC(F)(F)CCC2)n1)C(F)(F)F` [Compound 139]: the IC50 at IDH2-R140Q amounted to 2510 nM.

On to `C[C@@H](Nc1nc(NC2COC2)nc(C2=CC(O)CCC2)n1)C(F)(F)F` (some centres unmarked) [Compound 178], for which, on IDH2-R140Q, the IC50 came to 934 nM.

As to `C[C@@H](Nc1nc(N[C@@H]2CCOC2)nc(C2=CC(O)CCC2)n1)C(F)(F)F` (some centres unmarked) [Compound 179], the IC50 at IDH2-R140Q came to 598 nM.

As to `C[C@@H](Nc1nc(N[C@H]2CCOC2)nc(C2=CC(O)CCC2)n1)C(F)(F)F` (some centres unmarked) [Compound 180], the IC50 at IDH2-R140Q is 531 nM.

In the case of `C[C@@H](Nc1nc(N[C@@H]2CCC[C@@H]2O)nc(C2=CC(O)CCC2)n1)C(F)(F)F` (some centres unmarked) [Compound 182], the IC50 on IDH2-R140Q was 1230 nM.

Turning to `COC[C@H](C)Nc1nc(N[C@H](C)C(F)(F)F)nc(C2=CC(O)CCC2)n1` (some centres unmarked) [Compound 183], the IC50 at IDH2-R140Q is 507 nM.

Regarding `C[C@@H](Nc1nc(N[C@H](C)C(F)(F)F)nc(C2=CCCCC2)n1)C(F)(F)F` [Compound 186, 6-(Cyclohex-1-en-1-yl)-N^2,N^4-bis((R)-1,1,1-trifluoropropan-2-yl)-1,3,5-triazine-2,4-diamine], on IDH2-R140Q, the IC50 worked out at 677 nM.

As for `C1=C(c2nc(NCC3CC3)nc(NCC3CC3)n2)CCCC1` [Compound 187], the 50% inhibitory concentration (IC50) at IDH2-R140Q worked out at 742 nM.

Regarding `C[C@@H](Nc1nc(NCC(C)(C)O)nc(C2=CCCCC2)n1)C(F)(F)F` [Compound 188], the half-inhibitory concentration (IC50) on IDH2-R140Q came to 5020 nM.

For `CC(C)Nc1nc(N[C@H](C)C(F)(F)F)nc(C2=CCCC2)n1` [Compound 189], at IDH2-R140Q, the IC50 was found to be 1410 nM.

With `CC(C)Nc1nc(N[C@H](C)C(F)(F)F)nc(C2=CCCCC2)n1` [Compound 190, (R)-6-(cyclohex-1-en-1-yl)-N^2-isopropyl-N^4-(1,1,1-trifluoropropan-2-yl)-1,3,5-triazine-2,4-diamine], the IC50 on IDH2-R140Q is 413 nM.

In the case of `C[C@@H](Nc1nc(N[C@H](C)C2CC2)nc(C2=CCCCC2)n1)C1CC1` [Compound 191], the IC50 on IDH2-R140Q was 999 nM.

For the compound `C[C@@H](Nc1nc(NCC2CC2)nc(C2=CCCCC2)n1)C(F)(F)F` [Compound 192], on IDH2-R140Q, the IC50 worked out at 314 nM.
